How the values were obtained:
[1] = molecular target: T1, His-BIR2-3 (125-356, C202A/C213G, XIAP) (Homo sapiens, UniProt P98170, C202A/C213G); test: XIAP-BIR2-3 Dimeric SMAC Peptide Homogeneous Time Resolved Fluorescence (HTRF) Assay; format: binding; conditions: fluorescein labeled dimeric SMAC peptide
T1 construct: additions of His-BIR2-3 (125-356, C202A/C213G, XIAP), fluorescein labeled dimeric SMAC peptide

His-BIR3 (241-356, XIAP) = molecular target: T2, His-BIR3 (241-356, XIAP) (Homo sapiens, UniProt P98170); test: XIAP-BIR3/SMAC Homogeneous Time Resolved Fluorescence (HTRF) Assay; format: binding; conditions: fluorescein labeled SMAC peptide
T2 construct: additions of His-BIR3 (241-356, XIAP), fluorescein labeled SMAC peptide
T2 sequence (P98170 241-356): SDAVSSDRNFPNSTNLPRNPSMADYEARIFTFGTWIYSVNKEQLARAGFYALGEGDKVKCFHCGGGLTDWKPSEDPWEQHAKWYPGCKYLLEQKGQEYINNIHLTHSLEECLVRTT

T1 sequence (P98170 125-356 C202A/C213G): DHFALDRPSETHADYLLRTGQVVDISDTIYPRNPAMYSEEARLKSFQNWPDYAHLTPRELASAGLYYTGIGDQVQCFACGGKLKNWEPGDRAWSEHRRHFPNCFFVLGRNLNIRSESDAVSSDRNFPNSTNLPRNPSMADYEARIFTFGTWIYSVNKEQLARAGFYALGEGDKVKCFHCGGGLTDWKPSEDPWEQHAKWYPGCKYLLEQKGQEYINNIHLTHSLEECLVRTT

SMILES | IC50 [1] | IC50 (His-BIR3 (241-356, XIAP))
CN[C@@H](C)C(=O)N[C@H](C(=O)N[C@H]1C/C=C/COc2ccc(cc2)C[C@H](C(=O)O)NC(=O)[C@H](Cc2ccc3ccccc3c2)NC(=O)[C@@H]2[C@@H](CCN2C(=O)[C@@H](NC(=O)[C@H](C)NC)C(C)(C)C)OCc2cn(nn2)CC[C@@H](C(=O)OC)NC(=O)[C@H](Cc2ccc3ccccc3c2)NC1=O)C(C)(C)C [Example 21] | 2.6 nM | 1.8 nM
CN[C@@H](C)C(=O)N[C@H](C(=O)N1C[C@@H]2C[C@H]1C(=O)N[C@@H](Cc1ccc3ccccc3c1)C(=O)N[C@H](C(=O)O)Cc1ccc(cc1)OCc1cn(nn1)[C@H]1C[C@@H](C(=O)N[C@@H](Cc3ccc4ccccc4c3)C(=O)N[C@H](c3nnn[nH]3)Cc3ccc(cc3)OCCCCO2)N(C(=O)[C@@H](NC(=O)[C@H](C)NC)C(C)(C)C)C1)C(C)(C)C [Example 128] | 3.3 nM | 5.5 nM
CN[C@@H](C)C(=O)N[C@H](C(=O)N1C[C@H]2C/C=C/COc3ccc(cc3)C[C@@H](C(=O)NS(=O)(=O)C3CC3)NC(=O)[C@H](Cc3ccc4ccccc4c3)NC(=O)[C@@H]3C[C@H](C/C=C/COc4ccc(cc4)C[C@@H](C(=O)O)NC(=O)[C@H](Cc4ccc5ccccc5c4)NC(=O)[C@@H]1C2)CN3C(=O)[C@@H](NC(=O)[C@H](C)NC)C(C)(C)C)C(C)(C)C [Example 88] | 1.7 nM | 3.9 nM
CNC(C)C(=O)NC(C(=O)N1CC2CC1C(=O)NC(Cc1ccc3ccccc3c1)C(=O)NC(C(=O)O)Cc1ccc(cc1)OCC=CCOC1CC(C(=O)NC(Cc3ccc4ccccc4c3)C(=O)NC(C(=O)O)Cc3ccc(cc3)CC(=O)N2)N(C(=O)C(NC(=O)C(C)NC)C(C)(C)C)C1)C(C)(C)C (stereo not shown) [Example 30] | 1.1 nM | 7.5 nM
CN[C@@H](C)C(=O)N[C@H](C(=O)N1C[C@@H]2C[C@H]1C(=O)NC(Cc1ccc3ccccc3c1)C(=O)N[C@H](C(=O)NS(=O)(=O)CCCO)Cc1ccc(cc1)OCCCC[C@H]1C[C@@H](C(=O)N[C@@H](Cc3ccc4ccccc4c3)C(=O)N[C@H](C(=O)O)Cc3ccc(cc3)OCc3cn2nn3)N(C(=O)[C@@H](NC(=O)[C@H](C)NC)C(C)(C)C)C1)C(C)(C)C (stereo partly shown) [Example 101] | 1 nM | 6.1 nM
CN[C@@H](C)C(=O)N[C@H](C(=O)N1C[C@H]2C/C=C/COc3ccc(cc3)C[C@@H](C(=O)NS(=O)(=O)C3CC3)NC(=O)[C@H](Cc3ccc4ccccc4c3)NC(=O)[C@@H]3C[C@@H](CN3C(=O)[C@@H](NC(=O)[C@H](C)NC)C(C)(C)C)n3cc(nn3)COc3ccc(cc3)C[C@@H](C(=O)O)NC(=O)[C@H](Cc3ccc4ccccc4c3)NC(=O)[C@@H]1C2)C(C)(C)C [Example 25] | 0.2 nM | 0.9 nM
CN[C@@H](C)C(=O)N[C@H](C(=O)N1C[C@@H]2C[C@H]1C(=O)N[C@@H](C)C(=O)N[C@H](C(=O)NS(=O)(=O)C1CC1)Cc1ccc(cc1)OCc1cn(nn1)[C@H]1C[C@@H](C(=O)N[C@@H](Cc3ccc4ccccc4c3)C(=O)N[C@H](C(=O)O)Cc3ccc(cc3)OC/C=C/CO2)N(C(=O)[C@@H](NC(=O)[C@H](C)NC)C(C)(C)C)C1)C(C)(C)C [Example 103] | 2.9 nM | 67.2 nM
CN[C@@H](C)C(=O)N[C@H](C(=O)N1C[C@@H]2C[C@H]1C(=O)N[C@@H](Cc1ccc3ccccc3c1)C(=O)N[C@H](C(=O)O)Cc1ccc(cc1)C(=O)N[C@H]1C[C@@H](C(=O)N[C@@H](Cc3ccc4ccccc4c3)C(=O)N[C@H](C(=O)O)Cc3ccc(cc3)OC/C=C/CO2)N(C(=O)[C@@H](NC(=O)[C@H](C)NC)C(C)(C)C)C1)C1CCNCC1 [Example 67] | – | 20 nM
CN[C@@H](C)C(=O)N[C@H](C(=O)N1C[C@@H]2C[C@H]1C(=O)N[C@@H](Cc1ccc3ccccc3c1)C(=O)N[C@H](C(=O)NS(=O)(=O)C1CC1)Cc1ccc(cc1)OCc1cn(nn1)[C@H]1C[C@@H](C(=O)N[C@@H](Cc3ccc4ccccc4c3)C(=O)N[C@H](C(=O)O)Cc3ccc(cc3)OC/C=C/CO2)N(C(=O)[C@@H](NC(=O)[C@H](C)NC)C(C)(C)C)C1)C1CCCCC1 [Example 108] | 7.8 nM | 90.3 nM
CN[C@@H](C)C(=O)N[C@H](C(=O)N1C[C@@H]2C[C@H]1C(=O)N[C@@H](Cc1ccc3ccccc3c1)C(=O)N[C@H](C(=O)O)Cc1ccc(cc1)OC/C=C/CO[C@H]1C[C@@H](C(=O)N[C@@H](Cc3ccc4ccccc4c3)C(=O)N[C@H](C(=O)O)Cc3ccc(cc3)C(=O)N2)N(C(=O)[C@@H](NC(=O)[C@H](C)N(C)C(C)=O)C(C)(C)C)C1)C(C)(C)C [Example 73] | 440 nM | 29.3 nM
CN[C@@H](C)C(=O)N[C@H](C(=O)N1C[C@@H]2C[C@H]1C(=O)N[C@@H](Cc1ccc3ccccc3c1)C(=O)N[C@H](C(=O)O)Cc1ccc(cc1)OC/C=C/CO[C@H]1C[C@@H](C(=O)N[C@@H](Cc3ccc4ccccc4c3)C(=O)N[C@H](C(=O)NS(=O)(=O)C3CC3)Cc3ccc(cc3)OCc3cn2nn3)N(C(=O)[C@H](NC(=O)[C@H](C)NC)[C@@H](C)O)C1)C(C)(C)C [Example 111] | 2.6 nM | 34.1 nM
CN[C@@H](C)C(=O)N[C@H](C(=O)N1C[C@@H]2C[C@H]1C(=O)NC(Cc1ccc3ccccc3c1)C(=O)N[C@H](C(=O)O)Cc1ccc(cc1)OCCCC[C@H]1C[C@@H](C(=O)N[C@@H](Cc3ccc4ccccc4c3)C(=O)N[C@H](c3nnn[nH]3)Cc3ccc(cc3)OCc3cn2nn3)N(C(=O)[C@@H](NC(=O)[C@H](C)NC)C(C)(C)C)C1)C(C)(C)C (stereo partly shown) [Example 99] | 3.7 nM | 2.4 nM
CN[C@@H](C)C(=O)N[C@H](C(=O)N1CC[C@H]2OCc3cn(nn3)CC[C@@H](C(=O)OC)NC(=O)[C@H](Cc3ccc4ccccc4c3)NC(=O)[C@@H]3[C@@H](CCN3C(=O)[C@@H](NC(=O)[C@H](C)NC)C(C)(C)C)OC/C=C/COc3ccc(cc3)C[C@@H](C(=O)O)NC(=O)[C@H](Cc3ccc4ccccc4c3)NC(=O)[C@H]21)C(C)(C)C [Example 17] | 1.8 nM | 1.8 nM
CN[C@@H](C)C(=O)N[C@H](C(=O)N1C[C@@H]2C[C@H]1C(=O)NC(Cc1ccc3ccccc3c1)C(=O)N[C@H](C(=O)NS(=O)(=O)C1CC1)Cc1ccc(cc1)OCCCC[C@H]1C[C@@H](C(=O)N[C@@H](Cc3ccc4ccccc4c3)C(=O)N[C@H](C(=O)NS(=O)(=O)C3CC3)Cc3ccc(cc3)OCc3cn2nn3)N(C(=O)[C@@H](NC(=O)[C@H](C)NC)C(C)(C)C)C1)C(C)(C)C (stereo partly shown) [Example 100] | 4.2 nM | 4.6 nM
CNC(C)C(=O)NC(C(=O)N1CC2CC1C(=O)NC(Cc1ccc3ccccc3c1)C(=O)NC(C(=O)O)Cc1ccc(cc1)OCC=CCOC1CC(C(=O)NC(Cc3ccc4ccccc4c3)C(=O)NC(C(=O)O)CCCCC(=O)N2)N(C(=O)C(NC(=O)C(C)NC)C(C)(C)C)C1)C(C)(C)C (stereo not shown) [Example 31] | 2.1 nM | 5.8 nM
CC[C@H](NC(=O)[C@H](C)NC)C(=O)N1C[C@@H]2C[C@H]1C(=O)N[C@@H](C)C(=O)N[C@H](C(=O)O)Cc1ccc(cc1)C(=O)N[C@H]1C[C@@H](C(=O)N[C@@H](Cc3ccc4ccccc4c3)C(=O)N[C@H](C(=O)O)Cc3ccc(cc3)OC/C=C/CO2)N(C(=O)[C@@H](NC(=O)[C@H](C)NC)C(C)(C)C)C1 [Example 45] | 7.9 nM | 106 nM
CN[C@@H](C)C(=O)N[C@H](C(=O)N[C@H]1C/C=C/COc2ccc(cc2)C[C@@H](C(=O)O)NC(=O)[C@H](Cc2ccc3ccccc3c2)NC(=O)[C@@H]2CN(CCN2C(=O)[C@@H](NC(=O)[C@H](C)NC)C(C)(C)C)C(=O)CNC(=O)CC[C@@H](C(=O)O)NC(=O)[C@H](Cc2ccc3ccccc3c2)NC1=O)C(C)(C)C [Example 78] | 4.7 nM | 82.4 nM
CN[C@@H](C)C(=O)N[C@H](C(=O)N1C[C@@H]2C[C@H]1C(=O)N[C@@H](C)C(=O)N[C@H](C(=O)O)Cc1ccc(cc1)C(=O)N[C@H]1C[C@@H](C(=O)N[C@@H](Cc3ccc4ccccc4c3)C(=O)N[C@H](C(=O)O)Cc3ccc(cc3)OC/C=C/CO2)N(C(=O)[C@@H](NC(=O)[C@H](C)NC)C(C)(C)C)C1)C(C)(C)C [Example 44] | 3.5 nM | 111 nM
CN[C@@H](C)C(=O)N[C@H](C(=O)N1CC[C@@H]2OC/C=C/CC[C@@H](C(=O)O)NC(=O)[C@H](Cc3ccc4ccccc4c3)NC(=O)[C@@H]3[C@H](CCN3C(=O)[C@@H](NC(=O)[C@H](C)NC)C(C)(C)C)OCc3cn(nn3)[C@H](C(=O)NS(C)(=O)=O)CCCNC(=O)[C@H](Cc3ccc4ccccc4c3)NC(=O)[C@H]21)C(C)(C)C [Example 19] | 16.8 nM | 35.3 nM
CN[C@@H](C)C(=O)N[C@H](C(=O)N1C[C@@H]2C[C@H]1C(=O)N[C@@H](Cc1ccc3ccccc3c1)C(=O)N[C@H](C(=O)O)Cc1ccc(cc1)C(=O)N[C@H]1C[C@@H](C(=O)N[C@@H](Cc3ccc4ccccc4c3)C(=O)N[C@H](C(=O)O)Cc3ccc(cc3)OC/C=C/CO2)N(C(=O)[C@@H](NC(=O)[C@H](C)NC)C(C)(C)C)C1)C1CCNCC1 [Example 74] | – | 7.1 nM
CC[C@H](NC(=O)[C@H](C)NC)C(=O)N1C[C@@H]2C[C@H]1C(=O)N[C@@H](c1ccccc1)C(=O)N[C@H](C(=O)O)Cc1ccc(cc1)C(=O)N[C@H]1C[C@@H](C(=O)N[C@@H](Cc3ccc4ccccc4c3)C(=O)N[C@H](C(=O)O)Cc3ccc(cc3)OC/C=C/CO2)N(C(=O)[C@@H](NC(=O)[C@H](C)NC)C(C)(C)C)C1 [Example 54] | – | 60.3 nM
CC[C@H](NC(=O)[C@H](C)NC)C(=O)N1C[C@@H]2C[C@H]1C(=O)N[C@@H](c1ccccc1)C(=O)N[C@H](C(=O)O)Cc1ccc(cc1)C(=O)N[C@H]1C[C@@H](C(=O)N[C@@H](Cc3ccc4ccccc4c3)C(=O)N[C@H](C(=O)O)Cc3ccc(cc3)OC/C=C/CO2)N(C(=O)[C@@H](NC(=O)[C@H](C)NC)C(C)(C)C)C1 [Example 52] | – | 77.8 nM
